The test system of series [1] is T. gondii β-gal tachyzoites. Nature of the series: T. gondii β-gal tachyzoite proliferation in HFF (β-galactosidase / CPRG assay). The settings on record: 72 h, % of DMSO control. It counts as cell-based, Toxoplasma gondii. The text has this: (§1) If not otherwise stated, all tissue culture media were purchased from Gibco-BRL, and biochemical agents purchased from Sigma-Aldrich. HFF (SCRC-1041.1) were purchased from ATCC, and were maintained in DMEM medium containing 10% fetal calf serum (FCS, Gibco-BRL, Waltham, MA, USA), and antibiotics as described. Transgenic T. gondii β-gal (expressing the β-galactosidase gene from Escherichia coli) were kindly provided by Prof. David Sibley (Washington University, St. Louis, MO, USA) and were maintained in HFF as host cells, and were isolated as described before.
Compounds were prepared as 1 mM stock solutions in DMSO (dimethyl sulfoxide, Sigma, St. Louis, MO, USA). For activity assays, HFF monolayers were cultured in 96 well plates by seeding 5 × 10^3 HFF per well and allowing them to grow to confluence in phenol-red free culture medium at 37 °C/5% CO2. For infection, T. gondii β-gal tachyzoites were separated from their host cells as described, parasites were isolated and HFF monolayers were infected with freshly isolated tachyzoites (1 × 10^3 per well), with compounds solutions added concomitantly during infection.
For the primary screening, T. gondii β-gal infected HFF were exposed to 0.1 and 1µM of each compound for a period of 72 h, or the corresponding concentration of DMSO (0.01% and 0.1%, respectively) as control. For the determination of IC50 values against T. gondii β-gal, compounds were added at 8 concentrations: 0.007, 0.01, 0.03, 0.06, 0.12, 0.25, 0.5, and 1 µM. After 72 h of culture at 37 °C/5% CO2, the medium was aspirated, and cells were permeabilized by adding 90 µL PBS (phosphate buffered saline) containing 0.05% Triton X-100. After addition of 10 µL 5 mM chlorophenol red-β-D-galactopyranoside (CPRG; Roche Diagnostics, Rotkreuz, Switzerland) dissolved in PBS, the absorption shift was measured at 570 nm wavelength at various time points using an EnSpire® multimode plate reader (PerkinElmer, Inc, Waltham, MA, USA). For the primary screening at 0.1 and 1 μM, the activity, measured as the release of chlorophenol red over time, was calculated as percentage from the respective DMSO control, which represented 100% of T. gondii β-gal growth. For the IC50 assays, the activity measured as the release of chlorophenol red over time was proportional to the number of live parasites down to 50 per well as determined in pilot assays. IC50 values were calculated after the logit-log-transformation of relative growth and subsequent regression analysis. All calculations were performed using the corresponding software tool contained in the Excel software package (Microsoft, Redmond, WA, USA).

The test system of series [2] is HFF (human foreskin fibroblasts). Nature of the series: Cytotoxicity in uninfected confluent HFF host cells (AlamarBlue assay). It counts as cell-based. The conditions noted are these: 72 h, non-infected HFF.
Source text: as §1
Cytotoxicity assays using uninfected confluent HFF host cells were performed as previously described by AlamarBlue assay. In brief, confluent HFF monolayers in 96 well-plates were exposed to 0.1, 1 and 2.5 µM of each compound. Non-treated HFF as well as DMSO controls (0.01%, 0.1% and 0.25%) were included. After 72 h of incubation at 37 °C/5% CO2, the medium was removed, and plates were washed once with PBS. Resazurin stock solution was diluted 1:200 in PBS and 200 µL were added to each well. Plates were read at excitation wavelength 530 nm and emission wavelength […] at the EnSpire® multimode plate reader (PerkinElmer, Inc). Fluorescence was measured at different timepoints. Relative fluorescence units were calculated from timepoints with linear increase.
For orientation: Alamar Blue is a resazurin reagent that responds to reducing activity.

Series [3] has as its system (D-)A24cisPt8.0 cells. Nature of the series: Growth inhibition, 72 h, cell density by Casy cell analyzer. It is filed as cell-based, human. The settings on record: 72 h exposure, mean ± SD. From the text:
(§2) Human ovarian carcinoma cells A2780 and the cisPt resistant variant A2780cisR were purchased from the European Center of Cell Cultures (ECACC, Salisbury, UK). The HEK-293 cell line was kindly provided by Prof. Mühlemann, University of Bern. The A24 cells and its subline (D-)A24cisPt8.0 were described previously. The cancer cells A24 and (D-)A24cisPt8.0 [105] (human lung adenocarcinoma cells wild type A24 and cisPt resistant (D-)A24cisPt8.0 subline), A2780 and A2780cisR (human ovarian cisplatin sensitive and resistant cancer cells), together with HEK293 (human embryonic kidney) cells as model for normal cells, were included in the study for the evaluation of the ruthenium compounds’ selectivity and cross-resistance with cisplatin. The A24 sublines, A2780 and A2780cisR were cultured in RPMI 1640 medium without riboflavin, phenol red and antibiotics, buffered with 4.5 mM HEPES (BioConcept, Allschwil, Switzerland), supplemented with 10% (v/v) fetal bovine serum (FBS) (Thermo Scientific, Weltham, MA, USA) as the only source of flavins, and with 13.5 mM NaHCO3. In order to retain cisplatin resistance in the A2780cisR cell line, 1 µM cisplatin was added to the medium every 2–3 passages. HEK293 cells were cultured in DMEM/F12 medium, supplemented with 10% (v/v) FBS. At subcultivation, cell monolayers were rinsed with PBS and exposed for 3 min to StemPro Accutase Cell Dissociation Reagent (Thermo Scientific, Weltham, MA, USA) at 36.5 °C. Detached cells were resuspended in culture medium. Cell densities were determined using Moxi flow cytometer according to manufacturer instructions (Orflo Technologies, Ketchum, ID, USA). Experiments and subcultivations were performed using light with wavelengths above 520 nm to prevent photochemical artifacts. Cytostatic drug response was quantified as previously reported. Briefly, HEK293, A24, A2780, A2780cisR, and (D-)A24cisPt8.0 single cell suspensions were freshly prepared from confluent cell layers using Accutase and diluted in culture medium to a cell density of 2 × 10^4 or 8 × 10^4 cells/mL (D-)A24cisPt8.0. 150 µl of this suspension was combined with 150 µl of twice the cisPt or Ru-compound concentration in a 96-well microtiter plate (TPP, Trasadingen, Switzerland). Test plates were incubated under standard conditions for 72 h. Cell densities were determined in a Casy I cell analyzer using Casystat software (OLS OMNI Life Science, Bremen, Germany). Drug concentrations leading to 50% growth inhibition compared to controls were calculated using GraphPad Software (La Jolla, CA, USA). Each experiment was done in triplicates.

In series [4] the test system is A24 cells. The description is as above. It counts as cell-based, human. The settings on record: 72 h exposure, mean ± SD.
Source text: as §2

For series [5], the system named is A2780 cells. The series is described as above. It counts as cell-based, human. The settings on record: 72 h exposure, mean ± SD.
Source text: as §2

The test system of series [6] is A2780cisR cells. Described as above. The conditions noted are these: 72 h exposure, mean ± SD. It is filed as cell-based, human.
Source text: as §2

Series [7] has as its system HEK293 cells. The series is described as above. It counts as cell-based, human. The conditions noted are these: 72 h exposure, mean ± SD.
Source text: as §2

In series [8] the test system is Neospora caninum. Details: method as in PMID 28652238, PMID 30620038, PMID 31469986. The conditions noted are these: read-out: N. caninum proliferation IC50; cited from earlier work.
The subject of series [9] is Neospora caninum. Details: method as in PMID 28652238, PMID 30620038, PMID 31469986. The settings on record: applied orally, neosporosis mouse model; cited from earlier work.
Series [10] deals with T. gondii. The arrangement: method as in PMID 28652238. The conditions noted are these: cited from earlier work; for parasiticidal action on T. gondii: applied at 250 nM; for IC50: read-out: T. gondii proliferation IC50.
The subject of series [11] is A2780 cells. The settings on record: read-out: IC50 against A2780 cells; cited from earlier work.
Series [12] deals with A2780cisR cells. The arrangement: method as in PMID 27561129, doi:10.1016/j.jorganchem.2014.10.050, PMID 27187018. The conditions noted are these: read-out: IC50 against A2780cisR cells; cited from earlier work.
The subject of series [13] is HFF host cells. The conditions noted are these: cited from earlier work.
Series [14] relates to (D-)A24cisPt8.0 cells. Details: method as in PMID 32485798. The settings on record: cited from earlier work.
Series [15] has as its system T. gondii β-gal tachyzoites. The conditions noted are these: 72 h, tachyzoites grown in HFF; previously reported; cited from earlier work.

Read-outs that look alike come from different tables or passages of the source.

This is an account of results in PMC7767221, “Conjugates Containing Two and Three Trithiolato-Bridged Dinuclear Ruthenium(II)-Arene Units as In Vitro Antiparasitic and Anticancer Agents” (Pharmaceuticals, 2020).

Regarding “[(η6-p-MeC6H4Pri)2Ru2(μ2-SCH2C6H4-p-But)2(μ2-SC6H4-p-NH)-(CO)-m-C6H4-(CO)-(p-NH-C6H4-μ2S)Ru2(μ2-SCH2C6H4-p-But)2(η6-p-MeC6H4Pri)2]Cl2 [Compound 17]”, the “T. gondii β-gal growth (%) 0.1 µM” value in series [1] was determined as 117 ± 7%. For the same compound, the “T. gondii β-gal growth (%) 1 µM” value in series [1] is 109 ± 6%. Besides, in [2], the “HFF viability (%) 0.1 µM” value is 102 ± 2%. Further, in [2], the “HFF viability (%) 1 µM” value is reported as 106 ± 7%. Further, the IC50 stood at 0.09 ± 0.003 µM in [3]; 0.24 ± 0.016 µM in series [4]; 0.416 ± 0.106 µM in series [5]; 0.644 ± 0.08 µM in [6]; 0.447 ± 0.043 µM in [7].

Turning to “[(η^6-p-MeC6H4Pr^i)2Ru2(µ2-S-p-C6H4R)3]^+ with R = p-Bu^t”, the IC50 in series [8] is 5 nM; in series [10] it was 62 nM; in series [11] it was 30 nM; in [12], 30 nM. In addition, in [9], the “parasite load in the central nervous system” value (from here on “parasite load”) is listed as “did not reduce parasite load in the central nervous system”. Moreover, the “parasiticidal action on T. gondii” value in [10] is “did not act in a parasiticidal manner”. Further, in series [13], the “dosage that did not affect HFF host cells” value is listed as at least 200 µM.

As for “[(η^6-p-MeC6H4Pr^i)2Ru2(µ2-S-p-C6H4R)3]^+ with R = p-Me [A]”, the IC50 in series [8] was 15 nM. Also, in series [9], the “parasite load” value is recorded as “did not reduce parasite load in the central nervous system”. In addition, in [10], the “parasiticidal action on T. gondii” value is listed as “did not act in a parasiticidal manner” and the IC50 was 34 nM. The “dosage that did not affect HFF host cells” value in series [13] was at least 200 µM.

`N.N.[Cl][Pt][Cl]` [cisPt, cis-diamminedichloroplatinum(II)]: the IC50 in series [3] came to 8.89 ± 0.446 µM; in series [4] it was 0.333 ± 0.075 µM; in [5], 0.21 ± 0.119 µM; in series [6], 4.08 ± 0.21 µM; in [7], 0.515 ± 0.064 µM. Also, the “resistance to cisplatin of (D-)A24cisPt8.0 subline compared to the A24 cells” value in series [14] is on record as “approximately 30 fold”.

“[(η6-p-MeC6H4Pri)2Ru2(μ2-SCH2C6H4-p-But)2(μ2-SC6H4-p-O)-(CO)(CH2)3(CO)-(p-O-C6H4-μ2S)Ru2(μ2-SCH2C6H4-p-But)2(η6-p-MeC6H4Pri)2]Cl2 [Compound 7]”: the “T. gondii β-gal growth (%) 0.1 µM” value in series [1] is given as 68 ± 2%. For the same compound, in series [1], the “T. gondii β-gal growth (%) 1 µM” value stood at 0 ± 6%. The “HFF viability (%) 0.1 µM” value in series [2] is given as 76 ± 2%. Further, in series [2], the “HFF viability (%) 1 µM” value worked out at 25 ± 4%. The IC50 in [3] worked out at 0.053 ± 0.007 µM; in [4], 0.033 ± 0.002 µM; in series [5] it was 0.097 ± 0.041 µM; in series [6], 0.072 ± 0.008 µM; in series [7] it was 0.085 ± 0.026 µM.

On to `CCc1nc(N)nc(N)c1-c1ccc(Cl)cc1` [Pyrimethamine, pyrimethamine], for which the IC50 in series [15] is 326 nM.

Turning to “[(η^6-p-MeC6H4Pr^i)2Ru2(µ2-SR^1)(µ2-SR^2)2]^+ with R^1 = CH2-C6H4-p-Bu^t, R^2 = C6H4-p-OH, X = Cl^- [D]”, the IC50 in series [8] was 1 nM. In addition, the “parasite load” value in series [9] was “did not reduce parasite load in the central nervous system”. For the same compound, the “parasiticidal action on T. gondii” value in series [10] is on record as “did not act in a parasiticidal manner”.
